These are literature values, as cited in PMC12287436 (Scientific Reports, 2025).

Where a name gives a salt, the structure may show the parent alone.

For this data set the following is noted: rabbits; 2% instillation dose.

For the compound `CCN[C@H]1C[C@H](C)S(=O)(=O)c2sc(S(N)(=O)=O)cc21` [dorzolamide hydrochloride], the Retinal concentration is reported as 2.8 µM.
